# Experimental data published in patent US20220106282A1, “TREATMENT FOR BREAST CANCER, INCLUDING TRIPLE-NEGATIVE BREAST CANCER” (priority 2018, published 2022).
# “And” between values parts separate entries of the source, which are not always exact repeats. Identical values can stand only once. “Also recorded” adds a separate entry of the source. Marks after values point to notes of the source that are not given here.
# Key:
# uterine body = experiment: Hormonal effect: uterine body weight in tumor-bearing mice; format: in vivo, mouse
# Protocol: To estimate the hormonal effect of the medicament, the weight of the uterine body without uterine horns was measured (Table 9).
# [1] = test system: breast tumors in female FVB mice transgenic for HER-2/neu; experiment: Antitumor activity on model of multiple breast tumors in HER-2/neu transgenic mice
# Protocol: Two adenocarcinoma subtypes can be differentiated, in particular ER+, PR−, and ER−, PR− [2].
# The study was carried out in female FVB mice transgenic for HER-2/neu by conventional category; the strain was obtained from the mouse bank Charles River Laboratories (Italy). At the beginning of the study the animals were 21-41 weeks old having weight of 25 to 30 g.
# The study medicament was administered i.g. using a metal atraumatic gavage (with the procedure corresponds to the oral route of administration in clinical settings). The medicament was administered in a single daily dose (20 mg/kg of body weight) and 5-fold daily dose of 100 mg/kg of body weight. Ex tempore solutions of the medicament for administration were prepared in olive oil (refined olive oil supplemented with unrefined extra virgin olive oil available under Global Village “Clasico” trademark, lot L:183351116, expiry date 26 Apr. 2020, BAIEO, Spain). The administered volume was 0.1 ml per 10 g of a mouse body weight (0.2 ml of a ready-to-use formulation for a mouse of 20 g). The medicament administration was started 24 hours after the randomization. The duration of the administration course was 27-28 days.
# This dose corresponds to a human daily dose of 20 mg/kg.
# The control groups were given the olive oil (placebo).
# The evaluation criteria included the clinical observation data, animals body weights, time of death (if applicable), tumor growth over time, pathomorphological examination data (verification of a neoplasm during autopsy, assessment of toxic effects by macroscopic presentation of changes in the internal organs).
# The animals body weights were recorded before the first administration of the medicaments and then twice per week using a verified high-speed electronic laboratory balance Ohaus Scout Pro (USA) with a maximum load of 2000 g and a measurement step of 0.1 g.
# Macroscopically detectable tumor nodes were measured in animals once per week during weighing process. Two linear dimensions including the largest one and the largest rectangular to the former were recorded for each of the nodes. The largest dimension was taken as a length (a) and the second dimension as a width (b) of the tumor nodes. A tumor volume was calculated by the expression as follows: […]
# The efficacy of the therapy was assessed by recording a change in the average tumor volume, tumor growth inhibition (TGI), and the average total tumor volumes and its change over time in each of the mice.
# The percent of tumor growth inhibition was calculated by the expression as follows:
# TGI=(Vctrl−Vexp)/Vctrl×100(%),
# where Vctrl is an average tumor volume in a control group, and Vexp is an average tumor volume in an experimental group.
# The primary data from individual forms were transferred to Microsoft Excel 2007 books. The group arithmetic average (M) and standard deviation (m) were calculated for all quantitative data. The statistical analysis was performed using the statistical software GraphPad Prism 6.0. The differences between the groups were assessed using ANOVA regression analysis and the Fisher's exact test.
# [2] = 20 mg/kg i.g. daily, Day 27 vs Day −1
smiles,measurement,setting,value
"C[C@H]1Oc2cc(OS(N)(=O)=O)ccc2[C@H]2CC[C@]3(C)C(=O)CCC[C@H]3[C@H]21 [compound of formula (1), 3-O-sulphamoyloxy-7β-methyl-D-homo-6-oxa-8α-estra-1,3,5(10)-trien-17a-one]",Uterine body weight,"uterine body; 20 mg/kg, all mice",48 ± 5 mg
same,Uterine body weight,"uterine body; 20 mg/kg, estrous phase D",49 ± 16 mg
same,Uterine body weight,"uterine body; 20 mg/kg, estrous phase E",47 ± 7 mg
same,Uterine body weight,"uterine body; 100 mg/kg, all mice",50 ± 6 mg
same,Uterine body weight,"uterine body; 100 mg/kg, estrous phase D",26 ± 12 mg
same,Uterine body weight,"uterine body; 100 mg/kg, estrous phase E",56 ± 5 mg
same,Hormonal (uterotropic) effect on the uterus,"uterine body; uterine body weight versus control group, listed as medicament",no uterotropic activity; also recorded: did not differ from that of the control group
same,Average total volume of tumors in mice (M),"[1]; 20 mg/kg i.g. daily, Day 6",0.86 cm^3
same,Average volume of tumors present at the beginning of the experiment (M),"[1]; 20 mg/kg i.g. daily, Day 6",0.32 cm^3
same,Relative change of the average total volume of tumors to that of Day −1 (M),"[1]; 20 mg/kg i.g. daily, Day 6",20%
same,TGI (average total tumor volume),"[1]; 20 mg/kg i.g. daily, Day 6",−26%
same,TGI (average tumor volume),"[1]; 20 mg/kg i.g. daily, Day 6",−7%
same,Average total volume of tumors in mice (M),"[1]; 20 mg/kg i.g. daily, Day 13",1.04 cm^3
same,Average volume of tumors present at the beginning of the experiment (M),"[1]; 20 mg/kg i.g. daily, Day 13",0.39 cm^3
same,Relative change of the average total volume of tumors to that of Day −1 (M),"[1]; 20 mg/kg i.g. daily, Day 13",38** %
same,TGI (average total tumor volume),"[1]; 20 mg/kg i.g. daily, Day 13",19%
same,TGI (average tumor volume),"[1]; 20 mg/kg i.g. daily, Day 13",30%
same,Average total volume of tumors in mice (M),"[1]; 20 mg/kg i.g. daily, Day 20",1.61 cm^3
same,Average volume of tumors present at the beginning of the experiment (M),"[1]; 20 mg/kg i.g. daily, Day 20",0.6 cm^3
same,Relative change of the average total volume of tumors to that of Day −1 (M),"[1]; 20 mg/kg i.g. daily, Day 20",101** %
same,TGI (average total tumor volume),"[1]; 20 mg/kg i.g. daily, Day 20",−7%
same,TGI (average tumor volume),"[1]; 20 mg/kg i.g. daily, Day 20",9%
same,Average total volume of tumors in mice (M),"[1]; 20 mg/kg i.g. daily, Day 27",2.19 cm^3
same,Average volume of tumors present at the beginning of the experiment (M),"[1]; 20 mg/kg i.g. daily, Day 27",0.81 cm^3
same,Relative change of the average total volume of tumors to that of Day −1 (M),"[1]; 20 mg/kg i.g. daily, Day 27",212** %
same,TGI (average total tumor volume),"[1]; 20 mg/kg i.g. daily, Day 27",−7%
same,TGI (average tumor volume),"[1]; 20 mg/kg i.g. daily, Day 27",9%
same,% of change from baseline (average total tumor volume),[1]; [2],204%
same,% of change to the initial value (average tumor volume),[1]; [2],200%
same,Average total volume of tumors in mice (M),"[1]; 20 mg/kg i.g. daily, Day −1",0.72 cm^3
same,Average volume of tumors present at the beginning of the experiment (M),"[1]; 20 mg/kg i.g. daily, Day −1",0.27 cm^3
same,Relative change of the average total volume of tumors to that of Day −1 (M),"[1]; 20 mg/kg i.g. daily, Day −1",0%
same,TGI (average total tumor volume),"[1]; 20 mg/kg i.g. daily, Day −1",−71%
same,TGI (average tumor volume),"[1]; 20 mg/kg i.g. daily, Day −1",−50%
same,"Average volume of new tumors, % less than that of the control group","[1]; 20 mg/kg i.g. daily, end of observation",18%
same,Absolute number of new tumors,"[1]; 20 mg/kg i.g. daily, end of study",29
same,Frequency of tumor stabilizations,"[1]; 20 mg/kg i.g. daily, end of study, volume not increased by more than 20%",19%
same,Average volume of new tumors at the end of the observation period (M),"[1]; 20 mg/kg i.g. daily, listed as medicament",0.27±0.05 cm^3 and 0.27 cm^3
same,Average total volume of tumors in mice (M),"[1]; 100 mg/kg i.g. daily, Day 6",0.94 cm^3
same,Average volume of tumors present at the beginning of the experiment (M),"[1]; 100 mg/kg i.g. daily, Day 6",0.38 cm^3
same,Relative change of the average total volume of tumors to that of Day −1 (M),"[1]; 100 mg/kg i.g. daily, Day 6",26%
same,TGI (average total tumor volume),"[1]; 100 mg/kg i.g. daily, Day 6",−38%
same,TGI (average tumor volume),"[1]; 100 mg/kg i.g. daily, Day 6",−27%
same,Average total volume of tumors in mice (M),"[1]; 100 mg/kg i.g. daily, Day 13",1.15 cm^3
same,Average volume of tumors present at the beginning of the experiment (M),"[1]; 100 mg/kg i.g. daily, Day 13",0.46 cm^3
same,Relative change of the average total volume of tumors to that of Day −1 (M),"[1]; 100 mg/kg i.g. daily, Day 13",68** %
same,TGI (average total tumor volume),"[1]; 100 mg/kg i.g. daily, Day 13",11%
same,TGI (average tumor volume),"[1]; 100 mg/kg i.g. daily, Day 13",18%
same,Average total volume of tumors in mice (M),"[1]; 100 mg/kg i.g. daily, Day 20",1.36 cm^3
